ChEMBL document CHEMBL1139061, “Ac2-DPD, the bis-(O)-acetylated derivative of 4,5-dihydroxy-2,3-pentanedione (DPD) is a convenient stable precursor of bacterial quorum sensing autoinducer AI-2” (Bioorg Med Chem Lett, 2007)
Calls of active or inactive are those of the source. The rule behind the calls is not given here.

Experiments:
[1] = tested on: Salmonella typhimurium; experiment: Induction of beta-galactosidase production in Salmonella enterica Typhimurium MET844 after 4 hrs by beta-Gal reporter gene assay; assay type: functional, organism-based; details: Salmonella enterica subsp. enterica serovar Typhimurium
[2] = tested on: Bacillus cereus; experiment: Inhibition of biofilm formation in Bacillus cereus at 8 uM after 24 hrs by 96-well polyvinylchloride microtiter plate assay; assay type: functional, organism-based
[3] = tested on: Vibrio harveyi; experiment: Induction of bioluminescence in Vibrio harveyi after 4 hrs by luminescence reporter assay; details: read-out: IC50 (the source's name)

SMILES | Activity [1] | Activity [2] | EC50 [3] [nM]
CC(=O)OC[C@H](OC(C)=O)C(=O)C(C)=O | Active | Active | 2100
CC(=O)C(=O)[C@@H](O)CO | – | Active | –
CC(=O)OCC(OC(C)=O)C(=O)C(C)=O (stereo unspecified) | – | – | 2400
CC(=O)C(=O)C(O)CO (stereo unspecified) | Active | – | –
